The text below walks through data of patent publication US20020045664A1, “Estrogen mimetics lacking reproductive tract effects” (The University of Georgia Research Foundation, Inc, priority 1999, published 2002).

Entries after “also recorded” stand apart in the source; their conditions may differ. Marks after values point to notes of the source that are not given here.

In test [1] the test system is OVX rat. Nature of the test: OVX rat: cancellous bone histomorphometry, proximal tibial metaphysis. The format is in vivo. The settings on record: OVX rats; for osteoblast surface: 35 days after surgery; for Mineral apposition rate (MAR): 35 days postsurgery. As for the experimental part: (§1) In the first experiment 50 female Sprague-Dawley rats that were approximately 90 days of age and weighed an average of 240 g at the beginning of the study were used. Animal care and handling was carried out solely at the AAALAC accredited animal facility at the University of Georgia College of Pharmacy, in accordance with a protocol approved by the University of Georgia Institutional Animal Care and Use Committee. On the day of surgery (day 0), all rats were anesthetized with an intraperitoneal (i.p.) injection of ketamine hydrochloride and xylazine at doses of 50 mg/kg body weight and 10 mg/kg body weight, respectively. Ten rats were sham-operated during which the ovaries were exteriorized but replaced intact. Bilateral ovariectomies were performed in the remaining 40 rats from a dorsal approach. Each rat was housed individually at 25° C. with a light/dark cycle of 13 hours/11 hours. Food (Teklad 22/5 Rodent Diet, Madison, Wis.), with calcium and phosphate contents of 0.95% and 0.67%, respectively, was available ad libitum to all animals.
(§2) Sham-operated rats (N=10) and one of the four groups of OVX rats (N=10) were injected subcutaneously (s.c.) with vehicle (5% benzyl alcohol in corn oil) 5 days per week for 5 weeks. […] The above treatments were initiated on the first day after surgery. The dose level of 17β-estradiol was believed to be optimal based on earlier studies (T. Wronski et al., Endocrinology 123:681-686 (1988)). […] Each rat was injected s.c. with demeclocycline and calcein (Sigma Chemical Co., St. Louis, Mo.) at a dose of 15 mg/kg body weight on the 10th and 3rd days before sacrifice, respectively, to label sites of bone formation.
(§3) A second experiment, using 40 animals, was performed in exactly the same manner described above, in which effects of the s.c. administration of 3.7 mg/kg/day of 4HTA to one group of OVX animals was compared to the effects of vehicle or 17β-estradiol in three other groups (vehicle treated sham OVX, vehicle treated OVX, and 17β-estradiol-treated OVX rats).
The proximal halves of the tibiae were dehydrated by immersion in ethanol, and embedded undecalcified in methyl methacrylate. Longitudinal sections (4- and 8-μm thick) were cut with AO Autocut/Jung 1150 or 2050 microtomes. The 4-μm thick sections were stained according to the Von Kossa method with a tetrachrome counterstain (Polysciences Inc., Warrington, Pa.). Bone measurements were performed in cancellous bone tissue of the proximal tibial metaphysis beginning at distances 1 mm distal to the growth plate-metaphyseal junction to exclude the primary spongiosa. In general, two sections of the proximal tibia, with a total of 40-50 mm of cancellous bone perimeter, were sampled in each animal with an appreciable amount of cancellous bone. Additional sections were sampled in osteopenic animals to approximate the cancellous bone perimeter sampled in animals with greater cancellous bone mass.
Bone measurements were performed with the Bioquant Bone Morphometry System (R&M Biometrics Corp., Nashville, Tenn.) as described in T. Wronski et al. (Calcif. Tissue Int. 53:210-216 (1993)). Cancellous bone volume as a percentage of bone tissue area and osteoblast and osteoclast surfaces as percentages of total cancellous perimeter were measured in 4-μm thick, stained sections.
Fluorochrome-based indices of bone formation were measured in unstained, 8-μm-thick sections of the proximal tibial metaphysis. The percentage of cancellous bone surface with a double fluorochrome label (mineralizing surface) and mineral apposition rate were measured with the Bioquant system. In addition, bone formation rate (tissue level, total surface referent) was calculated by multiplying mineralizing surface by mineral apposition rate (H. Frost, Bone histomorphometry: analysis of trabecular bone dynamics. In: Recker R. R., Ed. Bone Histomorphometry: Techniques and Interpretation. Boca Raton, Fla.: CRC Press; 1983; 109-132).

For test [2], the system named is OVX rat. The test is described as follows: Serum cholesterol in OVX rats. The class given is in vivo. The settings on record: for Serum Cholesterol, mean (SD): experiment 1. As for the experimental part:
as §1, §2
All rats were sacrificed by exsanguination from the abdominal aorta under ketamine/xylazine anesthesia. Failure to detect ovarian tissue and observation of marked atrophy of the uterine horns confirmed the success of ovariectomy. The body weight of each animal was recorded, as was uterine wet weight. […] Serum was obtained by centrifugation for 10 minutes at 3000 rpm, and samples were stored at −80° C. until analyzed. […]

Test [3] relates to OVX rat. The test is described as follows: OVX rat: body weight and uterine wet weight. The class given is in vivo. To be noted: for greater uterine weight compared to vehicle-treated OVX animals: 17β-estradiol: average of both experiments, 4HTA: vs respective OVX vehicle controls; for Uterine Weight, mean (SD) / Body Weight, mean (SD): OVX rats, 17β-estradiol 10 μg/kg/day; for Uterine Weight, mean (SD): s.c. 5 weeks; for Body Weight, mean (SD): s.c. 5 days/week for 5 weeks; for increase in overall body weight after ovariectomy: five-week course of the two studies, subcutaneous five days per week. As for the experimental part: as §1, §2, §3
(§4) All rats were sacrificed by exsanguination from the abdominal aorta under ketamine/xylazine anesthesia. Failure to detect ovarian tissue and observation of marked atrophy of the uterine horns confirmed the success of ovariectomy. The body weight of each animal was recorded, as was uterine wet weight. Blood samples were allowed to coagulate at room temperature (2 hours) in a Vacutainer tube. Serum was obtained by centrifugation for 10 minutes at 3000 rpm, and samples were stored at −80° C. until analyzed. The right tibia was removed at necropsy, dissected free of muscle, and cut in half cross-sectionally with a hand-held saw (Dremel Moto Tool, Racine, Wis.). The bone samples were then placed in 10% phosphate-buffered formalin for 24 hours for tissue fixation.

For test [4], the system named is OVX rat. Nature of the test: OVX rat: cortical bone histomorphometry, tibial diaphysis. The class given is in vivo. To be noted: OVX rats. As for the experimental part:
In the first experiment 50 female Sprague-Dawley rats that were approximately 90 days of age and weighed an average of 240 g at the beginning of the study were used. Animal care and handling was carried out solely at the AAALAC accredited animal facility at the University of Georgia College of Pharmacy, in accordance with a protocol approved by the University of Georgia Institutional Animal Care and Use Committee. On the day of surgery (day 0), all rats were anesthetized with an intraperitoneal (i.p.) injection of ketamine hydrochloride and xylazine at doses of 50 mg/kg body weight and 10 mg/kg body weight, respectively. […]
Bone measurements were performed with the Bioquant Bone Morphometry System (R&M Biometrics Corp., Nashville, Tenn.). Cortical bone tissue area and bone marrow area were measured in one section per animal at a magnification of 20×. Cortical bone area was calculated by subtracting marrow area from cortical bone tissue area. Cortical width was measured from the periosteal to the endocortical surfaces at four equally spaced sites at the anterior (cranial), posterior (caudal), medial, and lateral aspects of each cross-section. […]
Fluorochrome-based indices of bone formation were measured under UV illumination at magnifications of 100× and 200× for mineralizing surface and mineral apposition rate, respectively. […]

Test [5] has as its system rat uterus (uterine weight gain). More on the design: Rat Uterotrophic Assay % Efficacy: concentration or dose not given beside the values. The settings on record: cited from earlier work; for Rat Uterotrophic Assay ED50: dose at which uterine weight gain was 50% maximal; for Rat Uterotrophic Assay % Efficacy: in vivo.
In test [6] the test system is OVX rat. Nature of the test: Serum rat osteocalcin radioimmunoassay in OVX rats. The settings on record: for increase in serum OC: OVX animals, with respect to OVX vehicle controls; for Relative Serum OC Level, mean (SD): relative to OVX-17β-estradiol treated group (=100). The format is in vivo. Here is the method: as §1, §2, §3, §4
Materials, as well as standard protocols for their use, were obtained from Biomedical Technologies, Inc., Stoughton Mass. Serum samples from each member of the different treatment groups were diluted 1:20. Duplicate aliquots (100 μL) of each diluted sample were incubated in an orbital shaker at 80 rpm ([…]) for 16 hours with the first antibody and nonimmune serum in RIA buffer (final volume 0.5 mL). An aliquot of [^125I]-osteocalcin (10 nCi, 0.034 ng) in 100 μL of RIA buffer was then added to each tube and incubation was continued for 24 hours. Then the second (precipitating) antibody was added in 1 mL of modified buffer, and incubation was continued for 4 hours. Tubes were then centrifuged at 1500×g for 15 minutes. Pellets were washed with cold distilled water and recentrifuged as before. Supernatant was decanted and radioactivity in pellets was determined using a gamma counter. Serum osteocalcin levels were determined by comparing the sample values (cpm) to the linear region of a standard curve of cpm/pellet vs. the amount of osteocalcin present, obtained from incubations to which known amounts (0-0.35 ng) of osteocalcin had been added. […]

For a further test, the system named is MCF-7 cells. The settings on record: cited from earlier work; for EC50: concentration at which growth stimulation was 50% maximal, read-out: MCF-7 Cell Growth EC50.
Test [7] concerns MCF 7 human breast cancer cells. To be noted: estradiol-stimulated MCF-7 proliferation; cited from earlier work.
Test [8] concerns OVX rat. The test is described as follows: OVX rat: body weight and uterine wet weight. The class given is in vivo.
Test [9] concerns mouse uterus (uterine weight gain). To be noted: dose at which uterine weight gain was 50% maximal; cited from earlier work.
Setting [10] is: experiment 1, HPPA 3.6 mg/kg/day.
[11] abbreviates: experiment 2, 4HTA 3.7 mg/kg/day.

As to `C[C@]12CC[C@@H]3c4ccc(O)cc4CC[C@H]3[C@@H]1CC[C@@H]2O` [17β-estradiol], in the test with OVX rat [1] (experiment 1), the osteoblast surface entry is “suppressed at the control level” and the “Mineral apposition rate (MAR)” value is “maintained at the control level”. In addition, in the test with OVX rat [1] (experiment 1, vs vehicle-treated control rats), the “mineralizing surface (cancellous)” value is “significantly lower”. Further, in the test on OVX rat [1] (second experiment, mean ±SD), the cancellous bone volume is 24.0±5.5%. Further, the “Serum Cholesterol, mean (SD)” value in the test with OVX rat [2] was 80 (3.5)^c mg/dL. Moreover, in the test with OVX rat [3], the “greater uterine weight compared to vehicle-treated OVX animals” value came out at 167% and the “increase in overall body weight after ovariectomy” value is on record as “not observed”. Besides, in the test with OVX rat [3] (setting [10]), the “Uterine Weight, mean (SD)” value is 269 (48)^b,c mg and the “Body Weight, mean (SD)” value is recorded as 310 (24)^b g. Also, in the test on OVX rat [3] (setting [11]), the “Uterine Weight, mean (SD)” value was 225 (30)^b,c mg and the “Body Weight, mean (SD)” value is on record as 303 (12)^b g. In the test with OVX rat [4], the “periosteal bone formation rate” value is given as “inhibited periosteal bone formation rate to a level below that of vehicle-treated control rats”. Besides, in test [5], the “Rat Uterotrophic Assay ED50” value was 0.16 µg/day and the “Rat Uterotrophic Assay % Efficacy” value is listed as 100%. Moreover, the “increase in serum OC” value with OVX rat [6] is given as “prevented this increase”. In the test on OVX rat [6] (experiment 1), the “Relative Serum OC Level, mean (SD)” value is reported as 100 (33)^b. Also, the “Relative Serum OC Level, mean (SD)” value with OVX rat [6] (experiment 2) is reported as 100 (16)^b. Also, in the test on MCF-7 cells, the “MCF-7 Cell Growth % Efficacy” value is 100% and the 50% effective concentration (EC50) was 0.02 nM.
As for `O=C(O)COc1ccc(C(Cc2ccccc2)c2ccc(O)cc2)cc1` (centres unmarked) [HPPA, 4-[1-(4-hydroxyphenyl)-2-phenylethyl]phenoxyacetic acid], in the test with OVX rat [1] (experiment 1), the osteoblast surface entry was “partially suppressed” and the “Mineral apposition rate (MAR)” value is “no effect”. Moreover, the “reduction in serum cholesterol with respect to vehicle-treated OVX animals” value with OVX rat [2] (10 μmol/kg sc) is recorded as 10%. The “Serum Cholesterol, mean (SD)” value with OVX rat [2] was 72 (1.9)^b,c,d mg/dL. Further, the “estrogen antagonist activity in growth inhibition assay in the presence of estrogen” value in [7] was “did not function as an estrogen antagonist; also recorded: no activity as an antiestrogen”. Further, in the test with OVX rat [3], the “greater uterine weight compared to vehicle-treated OVX animals” value is on record as “did not differ appreciably” and the “increase in overall body weight after ovariectomy” value is recorded as “not observed”. The “Body Weight, mean (SD)” value with OVX rat [3] (setting [10]) is recorded as 342 (23)^b,c g. Moreover, in the test with OVX rat [8] (s.c.), the “Rat Uterotrophic Assay ED50 (HPPA, Ex. III)” value is over 3400 µg/day. Further, the Emax with OVX rat [8] (sc, read-out: Rat Uterotrophic Assay % Efficacy (HPPA), s.c., Ex. III) is 0%. The “periosteal bone formation rate” value with OVX rat [4] is reported as “did not inhibit”. For the same compound, the “increase in serum OC” value in the test with OVX rat [6] is listed as 34%. Further, the “maximal growth-stimulatory effect, as a percent of that of estradiol” value in the test with MCF-7 cells (MCF-7 cell proliferation assay) is on record as 102%. In the test on MCF-7 cells, the “MCF-7 Cell Growth % Efficacy” value is recorded as 100% and the 50% effective concentration (EC50) was 16 nM.
As for `COc1ccc(C(Cl)=C(c2ccc(OC)cc2)c2ccc(OC)cc2)cc1` [chlorotrianisene], the “Uterotrophic Assay ED50, determined in the mouse” value in test [9] is given as 40^c μg/day. In addition, the “Rat Uterotrophic Assay % Efficacy” value in [5] is 100%. Besides, in the test on MCF-7 cells, the “MCF-7 Cell Growth % Efficacy” value is recorded as 89% and the 50% effective concentration (EC50) was 28 nM.
On to `CC/C(=C(/c1ccccc1)c1ccc(OCCN(C)C)cc1)c1ccccc1` [cis-tamoxifen], for which, in test [5], the “Rat Uterotrophic Assay ED50” value was 40 µg/day and the “Rat Uterotrophic Assay % Efficacy” value is reported as 52%. Moreover, the “MCF-7 Cell Growth % Efficacy” value with MCF-7 cells is 100%.
On to `CC/C(=C(/CC)c1ccc(O)cc1)c1ccc(O)cc1` [diethylstilbestrol], for which the “Uterotrophic Assay ED50, determined in the mouse” value in test [9] is 3^c μg/day. For the same compound, the “Rat Uterotrophic Assay % Efficacy” value in test [5] is 100%. Also, the “MCF-7 Cell Growth % Efficacy” value in the test on MCF-7 cells is given as 100%.
`CC/C(=C(\c1ccccc1)c1ccc(OCCN(C)C)cc1)c1ccccc1` [trans-tamoxifen, (Z)-2-[4-(1,2-diphenyl-1-butenyl)phenoxy]-N,N-dimethylethanamine]: in test [5], the “Rat Uterotrophic Assay ED50” value was 10 µg/day and the “Rat Uterotrophic Assay % Efficacy” value is 12%. In addition, in the test with MCF-7 cells, the “MCF-7 Cell Growth % Efficacy” value is 21%.

In general, EC50 refers to the midpoint of the concentration-response curve.
